How the values were obtained:
Assay in all cases: viability relative to DMSO control (fraction); higher = less drug effect (more viable cells)
Settings in all cases: 48 h
[1] = system: primary AML patient cells (S055)
Procedure, shortened: (§1)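 Primary mononuclear tumour cells (Ficoll-isolated from blood or bone marrow, or processed lymph node; fresh or cryopreserved) were plated at 4 × 10^4 cells per well in 384-well plates with pre-plated compounds at five concentrations, one well each. Medium was RPMI-1640 with penicillin/streptomycin, L-glutamine and human serum, at 37 °C and 5% CO2 for 48 h. Viability was read as CellTiter-Glo luminescence relative to the median of 16 inner DMSO wells.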

[2] = system: primary AML patient cells (S037)
Procedure, shortened: as §1

[3] = system: primary AML patient cells (S089)
Procedure, shortened: as §1

[4] = system: primary AML patient cells (S019)
Procedure, shortened: as §1

[5] = system: primary AML patient cells (S081)
Procedure, shortened: as §1

[6] = system: primary T-PLL patient cells (S008)
Procedure, shortened: as §1

[7] = system: primary ALL patient cells (S048)
Procedure, shortened: as §1

[8] = system: primary MCL patient cells (S068)
Procedure, shortened: as §1

[9] = system: primary FL patient cells (S022)
Procedure, shortened: as §1

[10] = system: primary AML patient cells (S025)
Procedure, shortened: as §1

[11] = system: primary AML patient cells (S002)
Procedure, shortened: as §1

[12] = system: primary AML patient cells (S091)
Procedure, shortened: as §1

[13] = system: primary AML patient cells (S011)
Procedure, shortened: as §1

[14] = system: primary AML patient cells (S021)
Procedure, shortened: as §1

In the case of `COc1cccc2c1C(=O)c1c(O)c3c(c(O)c1C2=O)C[C@@](O)(C(C)=O)C[C@@H]3O[C@H]1C[C@H](N)[C@H](O)[C@H](C)O1` [Daunorubicin], the viability ([1]; 0.0016 µM) was 1.03, the viability ([1]; 0.008 µM) was 1.05 and the viability ([1]; 0.04 µM) was 0.991. The viability ([1]; 0.2 µM) was 0.904, the viability ([1]; 1 µM) was 0.0407 and the viability ([2]; 0.0016 µM) was 1.06. The viability ([2]; 0.008 µM) was 1.02, the viability ([2]; 0.04 µM) was 0.709 and the viability ([2]; 0.2 µM) was 0.565. It also gave a viability ([2]; 1 µM) of 0.368, a viability ([3]; 0.0016 µM) of 1.09 and a viability ([3]; 0.008 µM) of 1.16. For the same compound, the viability ([3]; 0.04 µM) was 0.289, the viability ([3]; 0.2 µM) was 0.132 and the viability ([3]; 1 µM) was 0.0299. It also gave a viability ([4]; 0.0016 µM) of 1.38, a viability ([4]; 0.008 µM) of 1.33 and a viability ([4]; 0.04 µM) of 0.56. The viability ([4]; 0.2 µM) was 0.395, the viability ([4]; 1 µM) was 0.102 and the viability ([5]; 0.0016 µM) was 1.07. It also gave a viability ([5]; 0.008 µM) of 1.16, a viability ([5]; 0.04 µM) of 1.15 and a viability ([5]; 0.2 µM) of 1.2. It also gave a viability ([5]; 1 µM) of 0.0266, a viability ([6]; 0.0016 µM) of 1.08 and a viability ([6]; 0.008 µM) of 1.09. The viability ([6]; 0.04 µM) was 0.947, the viability ([6]; 0.2 µM) was 0.82 and the viability ([6]; 1 µM) was 0.0568. For the same compound, the viability ([7]; 0.0016 µM) was 1.02, the viability ([7]; 0.008 µM) was 0.731 and the viability ([7]; 0.04 µM) was 0.12. It also gave a viability ([7]; 0.2 µM) of 0.0694, a viability ([7]; 1 µM) of 0.0144 and a viability ([8]; 0.0016 µM) of 1.18. The viability ([8]; 0.008 µM) was 0.943, the viability ([8]; 0.04 µM) was 0.449 and the viability ([8]; 0.2 µM) was 0.252. It also gave a viability ([8]; 1 µM) of 0.0233, a viability ([9]; 0.0016 µM) of 0.966 and a viability ([9]; 0.008 µM) of 0.964. It also gave a viability ([9]; 0.04 µM) of 0.803, a viability ([9]; 0.2 µM) of 0.331 and a viability ([9]; 1 µM) of 0.304. It also gave a viability ([10]; 0.0016 µM) of 1.03, a viability ([10]; 0.008 µM) of 0.784 and a viability ([10]; 0.04 µM) of 0.453. The viability ([10]; 0.2 µM) was 0.431, the viability ([10]; 1 µM) was 0.0369 and the viability ([11]; 0.0016 µM) was 1.04. It also gave a viability ([11]; 0.008 µM) of 0.983, a viability ([11]; 0.04 µM) of 0.505 and a viability ([11]; 0.2 µM) of 0.323. For the same compound, the viability ([11]; 1 µM) was 0.241, the viability ([12]; 0.0016 µM) was 0.998 and the viability ([12]; 0.008 µM) was 0.777. It also gave a viability ([12]; 0.04 µM) of 0.515, a viability ([12]; 0.2 µM) of 0.558 and a viability ([12]; 1 µM) of 0.0819. For the same compound, the viability ([13]; 0.0016 µM) was 1.02, the viability ([13]; 0.008 µM) was 1.07 and the viability ([13]; 0.04 µM) was 0.409. It also gave a viability ([13]; 0.2 µM) of 0.0898, a viability ([13]; 1 µM) of 0.0206 and a viability ([14]; 0.0016 µM) of 1.09. The viability ([14]; 0.008 µM) was 0.972, the viability ([14]; 0.04 µM) was 0.424 and the viability ([14]; 0.2 µM) was 0.216. For the same compound, the viability ([14]; 1 µM) was 0.145.

For `Nc1ncn([C@H]2C[C@H](O)[C@@H](CO)O2)c(=O)n1` [Decitabine (Dacogen)], the viability ([1]; 0.024 µM) was 1.05, the viability ([1]; 0.12 µM) was 0.939 and the viability ([1]; 0.6 µM) was 1.03. The viability ([1]; 3 µM) was 0.972, the viability ([1]; 15 µM) was 1.02 and the viability ([2]; 0.024 µM) was 1.01. It also gave a viability ([2]; 0.12 µM) of 0.925, a viability ([2]; 0.6 µM) of 0.981 and a viability ([2]; 3 µM) of 0.91. The viability ([2]; 15 µM) was 0.955, the viability ([3]; 0.024 µM) was 0.729 and the viability ([3]; 0.12 µM) was 1.06. For the same compound, the viability ([3]; 0.6 µM) was 0.632, the viability ([3]; 3 µM) was 1.22 and the viability ([3]; 15 µM) was 0.642. The viability ([4]; 0.024 µM) was 1.11, the viability ([4]; 0.12 µM) was 0.753 and the viability ([4]; 0.6 µM) was 1.04. The viability ([4]; 3 µM) was 0.684, the viability ([4]; 15 µM) was 0.918 and the viability ([5]; 0.024 µM) was 1.05. The viability ([5]; 0.12 µM) was 0.898, the viability ([5]; 0.6 µM) was 1.05 and the viability ([5]; 3 µM) was 0.912. It also gave a viability ([5]; 15 µM) of 0.931, a viability ([6]; 0.024 µM) of 0.968 and a viability ([6]; 0.12 µM) of 1.02. It also gave a viability ([6]; 0.6 µM) of 0.953, a viability ([6]; 3 µM) of 1.08 and a viability ([6]; 15 µM) of 1.01. It also gave a viability ([7]; 0.024 µM) of 0.967, a viability ([7]; 0.12 µM) of 0.89 and a viability ([7]; 0.6 µM) of 0.938. For the same compound, the viability ([7]; 3 µM) was 0.843, the viability ([7]; 15 µM) was 0.82 and the viability ([8]; 0.024 µM) was 0.948. For the same compound, the viability ([8]; 0.12 µM) was 0.974, the viability ([8]; 0.6 µM) was 0.926 and the viability ([8]; 3 µM) was 0.938. For the same compound, the viability ([8]; 15 µM) was 0.775, the viability ([9]; 0.024 µM) was 1.12 and the viability ([9]; 0.12 µM) was 0.952. The viability ([9]; 0.6 µM) was 1.01, the viability ([9]; 3 µM) was 0.937 and the viability ([9]; 15 µM) was 0.962. The viability ([10]; 0.024 µM) was 0.968, the viability ([10]; 0.12 µM) was 0.953 and the viability ([10]; 0.6 µM) was 0.912. It also gave a viability ([10]; 3 µM) of 0.694, a viability ([10]; 15 µM) of 0.535 and a viability ([11]; 0.024 µM) of 1.03. The viability ([11]; 0.12 µM) was 1.03, the viability ([11]; 0.6 µM) was 0.952 and the viability ([11]; 3 µM) was 0.892. For the same compound, the viability ([11]; 15 µM) was 0.903, the viability ([12]; 0.024 µM) was 0.958 and the viability ([12]; 0.12 µM) was 1.09. For the same compound, the viability ([12]; 0.6 µM) was 0.83, the viability ([12]; 3 µM) was 0.913 and the viability ([12]; 15 µM) was 0.617. For the same compound, the viability ([13]; 0.024 µM) was 0.963, the viability ([13]; 0.12 µM) was 0.887 and the viability ([13]; 0.6 µM) was 1.1. For the same compound, the viability ([13]; 3 µM) was 0.887, the viability ([13]; 15 µM) was 0.956 and the viability ([14]; 0.024 µM) was 1.17. It also gave a viability ([14]; 0.12 µM) of 0.973, a viability ([14]; 0.6 µM) of 1.03 and a viability ([14]; 3 µM) of 0.942. It also gave a viability ([14]; 15 µM) of 0.818.

For `CC1(COc2ccc3c(c2)ncn3-c2ccc3cccc(N4CCC(N)CC4)c3n2)COC1` [Crenolanib], the viability ([1]; 0.016 µM) was 1.12, the viability ([1]; 0.08 µM) was 1.08 and the viability ([1]; 0.4 µM) was 1.11. The viability ([1]; 2 µM) was 1.12, the viability ([1]; 10 µM) was 0.381 and the viability ([2]; 0.016 µM) was 1.06. The viability ([2]; 0.08 µM) was 1.09, the viability ([2]; 0.4 µM) was 1.04 and the viability ([2]; 2 µM) was 0.811. The viability ([2]; 10 µM) was 0.572, the viability ([3]; 0.016 µM) was 0.824 and the viability ([3]; 0.08 µM) was 0.612. The viability ([3]; 0.4 µM) was 0.835, the viability ([3]; 2 µM) was 0.835 and the viability ([3]; 10 µM) was 0.0567. For the same compound, the viability ([4]; 0.016 µM) was 0.927, the viability ([4]; 0.08 µM) was 1.17 and the viability ([4]; 0.4 µM) was 0.995. It also gave a viability ([4]; 2 µM) of 1.19, a viability ([4]; 10 µM) of 0.148 and a viability ([5]; 0.016 µM) of 0.948. It also gave a viability ([5]; 0.08 µM) of 1.09, a viability ([5]; 0.4 µM) of 0.953 and a viability ([5]; 2 µM) of 1.07. For the same compound, the viability ([5]; 10 µM) was 0.0325, the viability ([6]; 0.016 µM) was 0.989 and the viability ([6]; 0.08 µM) was 1.04. The viability ([6]; 0.4 µM) was 1.06, the viability ([6]; 2 µM) was 1.07 and the viability ([6]; 10 µM) was 0.107. For the same compound, the viability ([7]; 0.016 µM) was 0.85, the viability ([7]; 0.08 µM) was 0.851 and the viability ([7]; 0.4 µM) was 0.797. The viability ([7]; 2 µM) was 0.554, the viability ([7]; 10 µM) was 0.418 and the viability ([8]; 0.016 µM) was 0.812. The viability ([8]; 0.08 µM) was 0.846, the viability ([8]; 0.4 µM) was 0.572 and the viability ([8]; 2 µM) was 0.417. The viability ([8]; 10 µM) was 0.031, the viability ([9]; 0.016 µM) was 0.991 and the viability ([9]; 0.08 µM) was 1.07. It also gave a viability ([9]; 0.4 µM) of 0.966, a viability ([9]; 2 µM) of 0.743 and a viability ([9]; 10 µM) of 0.0846. It also gave a viability ([10]; 0.016 µM) of 0.983, a viability ([10]; 0.08 µM) of 1.12 and a viability ([10]; 0.4 µM) of 1.29. The viability ([10]; 2 µM) was 1.29, the viability ([10]; 10 µM) was 0.173 and the viability ([11]; 0.016 µM) was 0.956. The viability ([11]; 0.08 µM) was 1.13, the viability ([11]; 0.4 µM) was 1.3 and the viability ([11]; 2 µM) was 1.5. It also gave a viability ([11]; 10 µM) of 0.426, a viability ([12]; 0.016 µM) of 1.03 and a viability ([12]; 0.08 µM) of 1.32. The viability ([12]; 0.4 µM) was 1.37, the viability ([12]; 2 µM) was 1.58 and the viability ([12]; 10 µM) was 0.101. For the same compound, the viability ([13]; 0.016 µM) was 1.14, the viability ([13]; 0.08 µM) was 0.997 and the viability ([13]; 0.4 µM) was 1.02. It also gave a viability ([13]; 2 µM) of 0.824, a viability ([13]; 10 µM) of 0.0337 and a viability ([14]; 0.016 µM) of 1.04. It also gave a viability ([14]; 0.08 µM) of 1.15, a viability ([14]; 0.4 µM) of 1.17 and a viability ([14]; 2 µM) of 0.984. For the same compound, the viability ([14]; 10 µM) was 0.453.

From the supplement of paper PMC10733146
